Data published in ChEMBL document CHEMBL3832540, “DailyMed|setid=3ce9ee32-b18b-4ef3-b127-ce479d520e1a | BRILINTA- ticagrelor tablet|Bryant Ranch Prepack”.

Legend:
[1] = (§1) Evaluation of pharmacokinetic parameters for Ticagrelor following oral administration of Ticagrelor tablets (BRILINTA); type: ADME, organism-based; details: human, in vivo, dosed compound id 12, dosed compound name TICAGRELOR, tissue Plasma
Homo sapiens = assay: as §1; type: ADME, organism-based; details: in vivo, po, dosed compound id 12, dosed compound name TICAGRELOR, tissue Plasma

CCCSc1nc(N[C@@H]2C[C@H]2c2ccc(F)c(F)c2)c2nnn([C@@H]3C[C@H](OCCO)[C@@H](O)[C@H]3O)c2n1 [TICAGRELOR]
Tmax [1]: 1.5 h | bioavailability [1]: 36% | half-life [1]: 7 h | Protein bound (Homo sapiens): 99% | Vd (Homo sapiens): 88 L
